Reference: patent US20240166622A1, “FLUORINATED QUINOLINE, QUINOXALINE AND BENZO[B][1,4]OXAZINE DERIVATIVES AS DIHYDROOROTATE DEHYDROGENASE (DHODH) INHIBITORS FOR THE TREATMENT OF CANCER, AUTOIMMUNE AND INFLAMMATORY DISEASES” (Janssen Biotech, Inc., priority 2019, published 2024)

What was measured:
[1] = test system: MOLM-13 cells; experiment: MOLM-13 Cellular Assay; format: cell-based; conditions: Homo sapiens, 72 hours, cell viability by CellTiter-Glo
Method: MOLM-13 cells were obtained from DSMZ and were maintained in RPMI 1640+Glutamax+25 mM HEPES (Invitrogen, catalog number 72400) supplemented with 10% heat inactivated fetal bovine serum (FBS; Invitrogen, catalog number 16140). The day prior to assay set-up, cells were pelleted, resuspended in fresh media, counted, and cells were plated at 0.4×10^6 cell/mL in a T150 flask. On the day of the assay, cells were pelleted, resuspend in fresh media, counted, and seeded at 5,000 cells/well in white opaque 96-well tissue culture treated microplates (Perkin Elmer, catalog number 6005680). Cells were exposed to different concentrations of test compounds at 37° C., 5% CO2 for 72 hours immediately after seeding. Cell viability was acquired on a Perkin Elmer Envision 2104 multilabel reader using the CellTiter-Glo assay (Promega) according to the manufacturer's instructions.

[2] = target: human DHODH (Homo sapiens (Human), UniProt Q02127); experiment: DHODH Enzymatic Assay; format: biochemical; conditions: purified human DHODH, DCIP absorbance, end-point mode
Sequence of human DHODH (Q02127 whole entry): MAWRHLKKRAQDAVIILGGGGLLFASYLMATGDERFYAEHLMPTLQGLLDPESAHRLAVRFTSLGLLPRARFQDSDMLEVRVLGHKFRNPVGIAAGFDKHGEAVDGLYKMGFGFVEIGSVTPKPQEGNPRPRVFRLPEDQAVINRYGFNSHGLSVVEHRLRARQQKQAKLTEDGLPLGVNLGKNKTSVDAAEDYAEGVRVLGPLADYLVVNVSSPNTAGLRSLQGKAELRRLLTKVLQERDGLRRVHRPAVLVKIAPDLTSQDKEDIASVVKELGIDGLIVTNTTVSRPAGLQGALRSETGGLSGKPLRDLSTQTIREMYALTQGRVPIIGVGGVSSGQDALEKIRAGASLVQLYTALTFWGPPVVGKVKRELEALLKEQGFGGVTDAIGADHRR
Method: To detect DHODH enzyme activities, dichloroindophenol (DCIP) is added as the final electron acceptor in the assay. DCIP can accept electrons from the reduced coenzyme Q generated in the assay, or from dihydroorotate (DHO) via FMN by binding presumably to the ubiquinone pocket. […] The assay buffer contained […], pH 7.5, 150 mM NaCl, 0.5 mM EDTA, and 0.1% Triton X-100 in MilliQ water. Substrate consisting of 20 mM DHO, 5 mM CoQ6, and 1 mM DCIP in assay buffer, initiates the reaction. […] Absorbance measurements were obtained using the BMG Phera Star plate-reading spectrophotomer. Purified human DHODH was purchased from Proteros (cat. No. PR-0044). Chemicals were purchased from Sigma-Aldrich, Teknova, and Avanti Polar Lipids. Liquid handling was performed using Labcyte Echo and Formulatrix Tempest.

SMILES	IC50 [1]	IC50 [2]
CCn1c(CO)nn(-c2cc3c(cc2F)c(=O)c(-c2ccccc2C)cn3C(C)C)c1=O [Example 10, 7-(4-Ethyl-3-(hydroxymethyl)-5-oxo-4,5-dihydro-TH-1,2,4-triazol-1-yl)-6-fluoro-1-isopropyl-3-(o-tolyl)quinolin-4(1H)-one]	9 nM	
CCn1c(CO)nn(-c2cc3c(cc2F)N[C@H](c2ccccc2C)C[C@@H]3C(C)C)c1=O (stereo in doubt) [Example 23, 4-Ethyl-2-((2R*,4S*)-7-fluoro-4-isopropyl-2-(o-tolyl)-1,2,3,4-tetrahydroquinolin-6-yl)-5-(hydroxymethyl)-2,4-dihydro-3H-1,2,4-triazol-3-one]	10 nM	49.2 nM
CCn1c(CO)nn(-c2ccc3c(c2)N([C@@H](C)C(F)(F)F)C(=O)C(c2ccccc2SC)N3)c1=O (stereo partly drawn) [Example 2, 7-(4-Ethyl-3-(hydroxymethyl)-5-oxo-4,5-dihydro-1H-1,2,4-triazol-1-yl)-3-(2-(methylthio)phenyl)-1-((S)-1,1,1-trifluoropropan-2-yl)-3,4-dihydroquinoxalin-2(1H)-one]	100 nM	588 nM
CCn1c(CO)nn(-c2cc3c(cc2F)N(C(C)=O)C(c2ccccc2C)CC3C(C)C)c1=O (stereo not drawn) [Example 24, 1-(1-Acetyl-7-fluoro-4-isopropyl-2-(o-tolyl)-1,2,3,4-tetrahydroquinolin-6-yl)-4-ethyl-3-(hydroxymethyl)-1H-1,2,4-triazol-5(4H)-one]	> 100 nM	5530 nM
CCn1c(CO)nn(-c2cc3c(cc2F)N[C@@H](c2ccccc2C)C[C@H]3C(C)C)c1=O (stereo in doubt) [Example 22, 4-Ethyl-2-((2R*,4S*)-7-fluoro-4-isopropyl-2-(0-tolyl)-1,2,3,4-tetrahydroquinolin-6-yl)-5-(hydroxymethyl)-2,4-dihydro-3H-1,2,4-triazol-3-one]	30 nM	113 nM
CCn1c(CO)nn(-c2ccc3c(c2)N([C@@H](C)C(F)(F)F)C(=O)C(c2c(F)cccc2Cl)N3)c1=O (stereo partly drawn) [Example 3, 3-(2-Chloro-6-fluorophenyl)-7-(4-ethyl-3-(hydroxymethyl)-5-oxo-4,5-dihydro-1H-1,2,4-triazol-1-yl)-1-((S)-1,1,1-trifluoropropan-2-yl)-3,4-dihydroquinoxalin-2(1H)-one]	100 nM	293 nM
CCn1c(CO)nn(-c2cc3c(cc2F)[C@H](O)[C@H](c2ccccc2C)CN3C(C)C)c1=O (stereo in doubt) [Example 16, 4-Ethyl-2-((3R*,4R*)-6-fluoro-4-hydroxy-1-isopropyl-3-(o-tolyl)-1,2,3,4-tetrahydroquinolin-7-yl)-5-(hydroxymethyl)-2,4-dihydro-3H-1,2,4-triazol-3-one]	2 nM	2.24 nM
CCn1c(CO)nn(-c2cc3c(cc2F)[C@H](O)[C@@H](c2ccccc2C)CN3C(C)C)c1=O (stereo in doubt) [Example 17, 4-Ethyl-2-((3S*,4R*)-6-fluoro-4-hydroxy-1-isopropyl-3-(o-tolyl)-1,2,3,4-tetrahydroquinolin-7-yl)-5-(hydroxymethyl)-2,4-dihydro-3H-1,2,4-triazol-3-one]	~100 nM	173 nM
CCn1c(CO)nn(-c2cc3c(cc2F)O[C@@H](c2c(F)cccc2Cl)CN3C(C)C)c1=O (single isomer, unassigned) [Example 7, (S*)-1-(2-(2-Chloro-6-fluorophenyl)-7-fluoro-4-isopropyl-3,4-dihydro-2H-benzo[b][1,4]oxazin-6-yl)-4-ethyl-3-(hydroxymethyl)-1H-1,2,4-triazol-5(4H)-one]	0.1 nM	0.256 nM
CCn1c(CO)nn(-c2cc3c(cc2F)C(C)(O)C(c2ccccc2C)CN3C(C)C)c1=O (racemic) [Example 20, Racemic 4-Ethyl-2-(6-fluoro-4-hydroxy-1-isopropyl-4-methyl-3-(o-tolyl)-1,2,3,4-tetrahydroquinolin-7-yl)-5-(hydroxymethyl)-2,4-dihydro-3H-1,2,4-triazol-3-one]	0.5 nM	0.607 nM
CCn1c(CO)nn(-c2cc3c(cc2F)NC(c2ccccc2C)CC3C(C)C)c1=O (racemic) [Example 13, Racemic 4-Ethyl-2-(7-fluoro-4-isopropyl-2-(o-tolyl)-1,2,3,4-tetrahydroquinolin-6-yl)-5-(hydroxymethyl)-2,4-dihydro-3H-1,2,4-triazol-3-one]	20 nM	51.7 nM
CCn1c(CO)nn(-c2cc3c(cc2F)C(=O)C(c2ccccc2C)CN3C(C)C)c1=O (stereo not drawn) [Example 11, 7-(4-Ethyl-3-(hydroxymethyl)-5-oxo-4,5-dihydro-1H-1,2,4-triazol-1-yl)-6-fluoro-1-isopropyl-3-(o-tolyl)-2,3-dihydroquinolin-4(1H)-one]	0.5 nM	
CCn1c(CO)nn(-c2cc3c(cc2F)C(O)C(c2ccccc2C)CN3C(C)C)c1=O (racemic) [Example 14, Racemic 4-Ethyl-2-(6-fluoro-4-hydroxy-1-isopropyl-3-(o-tolyl)-1,2,3,4-tetrahydroquinolin-7-yl)-5-(hydroxymethyl)-2,4-dihydro-3H-1,2,4-triazol-3-one]	4 nM	5.62 nM
CCn1c(CO)nn(-c2ccc3c(c2)N([C@@H](C)C(F)(F)F)CC(c2c(F)cccc2Cl)N3)c1=O (stereo partly drawn) [Example 4, 2-(2-(2-Chloro-6-fluorophenyl)-4-((S)-1,1,1-trifluoropropan-2-yl)-1,2,3,4-tetrahydroquinoxalin-6-yl)-4-ethyl-5-(hydroxymethyl)-2,4-dihydro-3H-1,2,4-triazol-3-one]	3 nM	2.42 nM
CCn1c(CO)nn(-c2cc3c(cc2F)C(C)=C(c2ccccc2C)CN3C(C)C)c1=O [Example 21, 4-Ethyl-2-(6-fluoro-1-isopropyl-4-methyl-3-(o-tolyl)-1,2-dihydroquinolin-7-yl)-5-(hydroxymethyl)-2,4-dihydro-3H-1,2,4-triazol-3-one]	2 nM	3.71 nM
CCn1c(CO)nn(-c2cc3c(cc2F)c(=O)c(-c2cccc(F)c2)cn3C(C)C)c1=O [Example 1, 7-(4-Ethyl-3-(hydroxymethyl)-5-oxo-4,5-dihydro-1H-1,2,4-triazol-1-yl)-6-fluoro-3-(3-fluorophenyl)-1-isopropylquinolin-4(1H)-one]	400 nM	528 nM
CCn1c(CO)nn(-c2cc3c(cc2F)O[C@H](c2c(F)cccc2Cl)CN3C(C)C)c1=O (single isomer, unassigned) [Example 8, (R*)-1-(2-(2-Chloro-6-fluorophenyl)-7-fluoro-4-isopropyl-3,4-dihydro-2H-benzo[b][1,4]oxazin-6-yl)-4-ethyl-3-(hydroxymethyl)-1H-1,2,4-triazol-5(4H)-one]	3 nM	5.5 nM
CCn1c(CO)nn(-c2cc3c(cc2F)OC(c2c(F)cccc2Cl)C(=O)N3C(C)C)c1=O (stereo not drawn) [Example 5, 2-(2-Chloro-6-fluorophenyl)-6-(4-ethyl-3-(hydroxymethyl)-5-oxo-4,5-dihydro-1H-1,2,4-triazol-1-yl)-7-fluoro-4-isopropyl-2H-benzo[b][1,4]oxazin-3(4H)-one]	50 nM	42.3 nM
CCn1c(CO)nn(-c2cc3c(cc2F)c(=O)c(-c2c(F)cccc2Cl)cn3C(C)C)c1=O [Example 12, 3-(2-Chloro-6-fluorophenyl)-7-(4-ethyl-3-(hydroxymethyl)-5-oxo-4,5-dihydro-1H-1,2,4-triazol-1-yl)-6-fluoro-1-isopropylquinolin-4(1H)-one]	30 nM	
CCn1c(CO)nn(-c2cc3c(cc2F)[C@@H](O)[C@@H](c2ccccc2C)CN3C(C)C)c1=O (stereo in doubt) [Example 15, 4-Ethyl-2-((3S*,4S*)-6-fluoro-4-hydroxy-1-isopropyl-3-(o-tolyl)-1,2,3,4-tetrahydroquinolin-7-yl)-5-(hydroxymethyl)-2,4-dihydro-3H-1,2,4-triazol-3-one]	4 nM	7.9 nM
CCn1c(CO)nn(-c2cc3c(cc2F)OC(c2c(F)cccc2Cl)CN3C(C)C)c1=O (stereo not drawn) [Example 6, 1-(2-(2-Chloro-6-fluorophenyl)-7-fluoro-4-isopropyl-3,4-dihydro-2H-benzo[b][1,4]oxazin-6-yl)-4-ethyl-3-(hydroxymethyl)-1H-1,2,4-triazol-5(4H)-one]	~0.3 nM	0.504 nM
CCn1c(CO)nn(-c2cc3c(cc2F)c(=O)c(-c2cc(C)ccc2F)cn3C(C)C)c1=O [Example 9, 7-(4-Ethyl-3-(hydroxymethyl)-5-oxo-4,5-dihydro-1H-1,2,4-triazol-1-yl)-6-fluoro-3-(2-fluoro-5-methylphenyl)-1-isopropylquinolin-4(1H)-one]	> 100 nM	58.2 nM
CCn1c(CO)nn(-c2cc3c(cc2F)[C@@H](O)[C@H](c2ccccc2C)CN3C(C)C)c1=O (stereo in doubt) [Example 18, 4-Ethyl-2-((3R*,4S*)-6-fluoro-4-hydroxy-1-isopropyl-3-(o-tolyl)-1,2,3,4-tetrahydroquinolin-7-yl)-5-(hydroxymethyl)-2,4-dihydro-3H-1,2,4-triazol-3-one]	3 nM	
